Experimental data: patent US11618738B2, “Compound and application thereof in treating inflammation or inflammation-related diseases” (SICHUAN CENTER FOR TRANSLATIONAL MEDICINE OF TRADITIONAL …, priority 2017, dated 2023)
Read-outs that look alike come from different tables or passages of the source.

Key:
[1] = test system: PGE2 induced by LPS; experiment: Inhibition of LPS-induced PGE2 in RAW 264.7 cells (ELISA); type: cell-based, mice; conditions: for PGE2 inhibition (%): RAW 264.7 cells, LPS 100 ng/mL, overnight, test concentration not given; for PGE2 inhibition rate (in words): same experimental method as Table 1
Experimental: (§1) This example is taken from a previous publication by Song et al.^[1]. In brief, mice RAW 264.7 cells were treated with increasing doses of each test compound at 37° C. for 1 hour. Thereafter, the cells were attacked with 20 μL/well of LPS (equivalent to a final concentration of 100 ng/mL). The cells were further incubated overnight at 37° C. A commercial ELISA assay kit obtained from R&D Systems (Minneapolis, Minn.) was used to determine the level of PGE2 in the supernatant, and three parallel experiments were performed. The optical density of each well was measured using a BioTek Epoch microplate reader (Winooski, Vt.) set to 450 nm. The NO study was performed in a similar manner, but Greiss reagent was used to monitor the level of NO, and the results were read at 550 nm.

[2] = test system: NO induced by LPS; experiment: Inhibition of LPS-induced NO in RAW 264.7 cells (Greiss reagent); type: cell-based, mice; conditions: for IC50: Mus musculus, RAW264.7
Description: Nitric oxide (NO) is a signaling molecule that plays a key role in the pathogenesis of inflammation. Under abnormal conditions, NO is a pro-inflammatory mediator that causes inflammation due to its overproduction. Therefore, the regulation of elevated NO levels by stimulants (such as LPS) has been widely used as a screening method to identify anti-inflammatory drugs. Since NO is oxidized into nitrite and nitrate, the determination of total NO2^−/NO3^− is a conventional method for determining NO levels, and Griess reagent is usually used in this type of experiment.
as §1

[3] = test system: acute gouty arthritis in rats induced by sodium urate crystals; experiment: Foot swelling in rats with acute gouty arthritis induced by sodium urate crystals; type: in vivo; conditions: for Foot swelling: 16.67 mg/kg once a day, mean ± SD
Experimental: Injecting sodium urate crystals into the joint cavity to establish an acute gouty arthritis model. Its pathological and clinical manifestations are very similar. It is a classic method commonly used in animal experiments to study gouty arthritis. This experiment will explore the effects of UTLOH series drugs on animals with acute gouty arthritis induced by sodium urate.
SPF grade SD rats, half female and half male (200-220 g/mouse), were randomly grouped by weight. The drug was administered once a day, for 3 consecutive days. […] Rats in the normal group were injected with an equal volume of sterile saline to the back of the right ankle joint. The administration was continued after modeling, once a day for 3 consecutive days. The ankle joint and foot volume of the rats in each group were measured respectively before modeling and 2 h, 4 h, 8 h, 24 h and 48 h after modeling.

[4] = test system: 10% egg white-induced foot swelling in rats; experiment: 10% egg white-induced foot swelling in rats; type: in vivo; conditions: for Foot swelling: 6.67 mg/kg gavage once a day for 3 days, mean ± SD
Description: Injecting 10% egg white into rat paws can cause early acute inflammation such as redness, heat, swelling, and pain in rat paws. In this experiment, the anti-inflammatory effects of UTLOH series compounds were observed by the degree of swelling of the paws of rats after inflammation.
SPF grade SD rats, half female and half male (100-120 g/mouse) were randomly grouped according to body weight. Each group was given the corresponding drugs by gavage, once a day, for 3 consecutive days, with a gavage volume of 1 ml/100 g. Before the experiment, the ankle joint of the right hind foot of each group of rats was marked, and the foot volume of each group of rats was measured twice with a rat foot volume meter, and the average of the two times was taken as the […]. 30 minutes after the last administration, the rats in each group were given a subcutaneous needle in the right hind paw, and injected with 10% fresh egg white solution 0.1 ml/mouse to cause inflammation, establishing a rat model of paw swelling. The post-inflamed foot volume in mice was measured twice at 1 h, 2 h, 3 h, and 4 h after inflammation, and the average of the two times was taken as the post-inflamed foot volume. The normal group was given 1 ml/100 g volume of 0.5% CMC-Na solution by gavage according to body weight.

[5] = RAW 264.7 cells, LPS 100 ng/mL, overnight, read-out: NO IC50 (μM), class
[6] = RAW 264.7 cells, LPS 100 ng/mL, overnight, read-out: NO IC50 (μM), value in brackets
[7] = same method as Table 1, given as 10-50 μM, or <10 μM, read-out: IC50 of NO

| Compound | IC50 [2, 5] | IC50 [2, 6] | IC50 [2, 7] | PGE2 inhibition (%) [1] | PGE2 inhibition rate (in words) [1] | other results |
| --- | --- | --- | --- | --- | --- | --- |
| Cc1cc(C(=O)Nc2cc(O)ccc2O)no1 [UTLOH-4f] |  |  | ≤ 50 µM |  | very good |  |
| Cc1cc(C(=O)Nc2cccc(O)c2)no1 [UTLOH-4b] | < 10 µM | 7.7 µM |  | 64.0% |  |  |
| COc1cc2c(c(OC)c1OC)-c1ccc(OC)c(=O)cc1[C@@H](NC(C)=O)CC2 [Colchicine, reference compound] |  |  |  |  |  | Foot swelling ([3]; 2 h after modeling): 0.16 ± 0.12 mL; Foot swelling ([3]; 4 h after modeling): 0.21 ± 0.10 mL; Foot swelling ([3]; 8 h after modeling): 0.19 ± 0.10 mL; Foot swelling ([3]; 24 h after modeling): 0.20 ± 0.10 mL; Foot swelling ([3]; 48 h after modeling): 0.07 ± 0.09 mL; degree of foot swelling versus model group (in words) ([3]; gavage, at each time point): significantly lower |
| Cc1oncc1C(=O)Nc1ccc(C(F)(F)F)cc1 [Leflunomide, reference compound] | > 250 µM | 298 µM |  | 54.0% |  | Foot swelling ([4]; 1 h after inflammation): 0.63 ± 0.14 mL; Foot swelling ([4]; 2 h after inflammation): 0.62 ± 0.15 mL; Foot swelling ([4]; 3 h after inflammation): 0.54 ± 0.14 mL; Foot swelling ([4]; 4 h after inflammation): 0.43 ± 0.11 mL; degree of foot swelling compared with the normal group (in words) ([4]; at 1 h and 2 h): significantly reduced |
| Cc1cc(C(=O)Nc2ccc(O)cc2)no1 [UTLOH-4c] | < 10 µM | 6.3 µM |  | 73.1% |  | inhibition on PGE2 compared to leflunomide (in words) ([1]; compared to leflunomide): stronger; inhibition of LPS-induced NO compared with leflunomide and teriflunomide (in words) ([2]; compared with leflunomide and teriflunomide): more strongly |
| Cc1cc(C(=O)Nc2ccc(O)c(O)c2)no1 [UTLOH-4h] |  |  | ≤ 50 µM |  | very good |  |
| Cc1cc(C(=O)Nc2cccc(O)c2O)no1 [UTLOH-4d] |  |  | ≤ 50 µM |  | very good |  |
| Cc1cc(C(=O)Nc2c(O)cccc2O)no1 [UTLOH-4g] |  |  | ≤ 50 µM |  | very good |  |

Second part, led by results:

| IC50 [2, 5] | IC50 [2, 6] | IC50 [2, 7] | Compound | PGE2 inhibition (%) [1] | PGE2 inhibition rate (in words) [1] | other results |
| --- | --- | --- | --- | --- | --- | --- |
| 150 to 250 µM | 175 µM |  | C/C(O)=C(\C#N)C(=O)Nc1ccc(C(F)(F)F)cc1 [Teriflunomide, reference compound] | 70.2% |  |  |
|  |  | ≤ 50 µM | Cc1cc(C(=O)Nc2c(O)cc(O)cc2O)no1 [UTLOH-4k] |  | very good |  |
|  |  | ≤ 50 µM | Cc1cc(C(=O)Nc2cc(O)cc(O)c2)no1 [UTLOH-4i] |  | very good |  |
